Laboratory results published in patent US12344616B2, “Factor XIa inhibitors” (Merck Sharp & Dohme LLC, priority 2018, dated 2025).

Experiments:
[1] = Dog screening IV/PO pharmacokinetics; format: in vivo; conditions: male, plasma, mean residence time, IV/PO procedure
Description: Plasma pharmacokinetic parameters for clearance, volume of distribution, half-life, mean residence time (MRT) and oral bioavailability were determined in dogs from oral administration and IV administration studies. 4 male dogs, typically weighing 8-12 kilograms, were fasted overnight prior to dosing. Compounds were prepared for oral and IV dosing by addition to a vehicle, depending on the dose used. For a typical preparation, 1 mg per mL (IV) or 1.5 mg per mL (oral) of test compound was added to vehicle comprised of 20% dimethyl sulfoxide (DMSO), 60% polyethylene glycol 400 (PEG400) and 20% water. IV formulation was administered to 2 dogs via the saphenous or cephalic vein, and oral dosing was administered to 2 dogs via oral gavage. Blood was collected by the cephalic or jugular vein, typically at predose, 2 min, 8 min, 15 min, 30 min, and 1, 2, 4, 6, 8 and 24 hr postdose for IV, and at predose, 15 min, 30 min, and 1, 2, 4, 6, 8, and 24 hr for oral dosing. Samples were collected in K2EDTA tubes, stored on ice, and centrifuged. Plasma was transferred to a micro titer plate and stored at −70° C. until analysis. Plasma samples were extracted using protein precipitation and analyzed by liquid chromatography separation followed by mass spec detection (LCMS/MS), using a standard curve for each compound. Plasma pharmacokinetic parameters were calculated for IV and oral dosing data by non-compartmental methods. Oral bioavailability was determined as the ratio of the dose-normalized plasma area under the curve (AUC) following oral dosing vs. IV dosing.

human tissue kallikrein = human tissue kallikrein (Homo sapiens (Human), UniProt P06870); assay: Inhibition of tissue kallikrein enzymatic activity (tKal); format: biochemical; conditions: human tissue kallikrein 5 nM, N-acetyl-KPR-AFC substrate, 25° C.
human tissue kallikrein, sequence (P06870 25-262): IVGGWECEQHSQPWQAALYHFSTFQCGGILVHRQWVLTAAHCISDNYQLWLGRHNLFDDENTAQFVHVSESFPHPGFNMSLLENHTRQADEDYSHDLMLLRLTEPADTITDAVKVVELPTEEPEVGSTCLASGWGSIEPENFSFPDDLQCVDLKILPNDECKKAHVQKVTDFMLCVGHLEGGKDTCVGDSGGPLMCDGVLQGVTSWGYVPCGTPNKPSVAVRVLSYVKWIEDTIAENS
Description: Compounds were assayed with human tissue kallikrein (RayBiotech, Cat #228-10996 or Evotec, final concentration 5 nM) in 50 mM HEPES, 150 mM NaCl, 5 mM CaCl2, 0.1% PEG pH 7.4 at 25° C. in a Corning 3575 non-binding surface microplate. Compounds were tested in 10-point dose titrations starting at 166.67 uM with a 3-fold dilution series. Tissue kallikrein enzymatic activity was determined by measuring the rate of cleavage of N-acetyl-KPR-AFC substrate (Sigma, Cat #C6608, final concentration 100 uM) by continuously monitoring the fluorescence at 400/505 nm using a Tecan Safire plate-reader. The initial reaction rates (0 to 20 minutes) were used to determine percent inhibition. The % Inhibition for each data point was recalculated from the RFU/min data and analyzed using the log(inhibitor) vs. response four parameters equation with the GraphPad Prism software.

[2] = target: Human Norepinephrine Transporter (NET) (Homo sapiens (Human), UniProt P23975); assay: Norepinephrine Transporter functional antagonist uptake assay; format: cell-based; conditions: [3H]Norepinephrine uptake, MDCK cells expressing human recombinant NET
Human Norepinephrine Transporter (NET), sequence (P23975 whole entry): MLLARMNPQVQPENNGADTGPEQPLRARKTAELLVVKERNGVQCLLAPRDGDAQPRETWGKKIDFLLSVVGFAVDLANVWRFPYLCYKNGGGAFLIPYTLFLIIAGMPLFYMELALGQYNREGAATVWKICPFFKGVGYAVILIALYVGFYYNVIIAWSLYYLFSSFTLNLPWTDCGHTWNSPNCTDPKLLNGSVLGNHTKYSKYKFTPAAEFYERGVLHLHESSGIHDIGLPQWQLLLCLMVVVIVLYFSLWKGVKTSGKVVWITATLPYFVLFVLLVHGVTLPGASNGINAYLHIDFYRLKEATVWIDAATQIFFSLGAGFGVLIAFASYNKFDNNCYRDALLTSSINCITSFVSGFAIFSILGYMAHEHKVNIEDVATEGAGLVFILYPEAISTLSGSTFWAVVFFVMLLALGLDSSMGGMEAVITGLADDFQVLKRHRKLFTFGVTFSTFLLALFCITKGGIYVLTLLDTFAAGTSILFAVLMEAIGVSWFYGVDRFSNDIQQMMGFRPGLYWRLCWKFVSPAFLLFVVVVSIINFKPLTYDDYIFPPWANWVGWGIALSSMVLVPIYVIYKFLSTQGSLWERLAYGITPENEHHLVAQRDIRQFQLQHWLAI
Description: Human Norepinephrine Transporter (NET) Functional Antagonist Uptake Assay was carried out at Panlabs Cerep (assay #302100). Human recombinant norepinephrine transporter expressed in MDCK cells were plated overnight. Test compound and/or vehicle was pre-incubated with cells (2×10E5/ml) in modified Tris-HEPES buffer pH 7.1 for 20 minutes at 25° C. and 25 nM [3H]Norepinephrine was then added for an additional 15 minute incubation period. A lysate was obtained from solubilized cells and counted to determine [3H]Norepinephrine uptake. Reduction of [3H]Norepinephrine uptake by 50 percent or more (≥50%) relative to 10 μM desipramine indicates significant inhibitory activity. Compounds are screened at 10, 3, 1, 0.3, 0.1, 0.03, 0.01 and 0.003 μM. These same concentrations are concurrently applied to a separate group of untreated cells and evaluated for possible compound-induced cytotoxicity only if significant inhibition of uptake is observed. IC50 values were determined by a non-linear, least squares regression analysis using MathIQ™ (IDBusiness Solutions Ltd., UK).

[3] = Dog cassette IV pharmacokinetics; format: in vivo; conditions: male, plasma, mean residence time, cassette IV procedure
Description: Plasma pharmacokinetic parameters for clearance, volume of distribution, half-life, and mean residence time (MRT) were determined in dogs from IV cassette administration studies. 2 male dogs, typically weighing 8-12 kilograms, were fasted overnight prior to dosing. Compounds were prepared for IV dosing by addition to a vehicle, depending on the dose used. For a typical preparation, 1 mg per mL (IV) of up to 5 test compounds were added to vehicle comprised of 20% dimethyl sulfoxide (DMSO), 60% polyethylene glycol 400 (PEG400) and 20% water. IV formulation was administered to 2 dogs via the saphenous or cephalic vein. Blood was collected by the cephalic or jugular vein, typically at predose, 2, 8, 15, 30 min, 1, 2, 4, 6, 8 and 24 hr postdose. Samples were collected in K2EDTA tubes, stored on ice, and centrifuged. Plasma was transferred to a micro titer plate and stored at −70° C. until analysis. Plasma samples were extracted using protein precipitation and analyzed by liquid chromatography separation followed by mass spec detection (LCMS/MS), using a standard curve for each compound. Plasma pharmacokinetic parameters were calculated by non-compartmental methods.

| MRT [1] [h] | IC50 (human tissue kallikrein) [µM] | IC50 [2] [µM] | MRT [3] [h] | SMILES |
| --- | --- | --- | --- | --- |
| 8.7 | > 167 | 6.5 |  | COC(=O)Nc1ccc2c(c1)NC(=O)C(C)(C)CCC[C@H](c1ccc(-c3cc(Cl)ccc3-n3cc(C(F)F)cn3)c[n+]1[O-])c1nc-2c(C)[nH]1 [Example 4, (R,Z)-5-(5-chloro-2-(4-(difluoromethyl)-1H-pyrazol-1-yl)phenyl)-2-(2^4-((methoxycarbonyl)amino)-1^5,5,5-trimethyl-4-oxo-1^1H-3-aza-1(4,2)-imidazola-2(1,2)-benzenacyclononaphane-9-yl)pyridine 1-oxide] |
| 10 | > 167 | > 10 |  | COC(=O)Nc1ccc2c(c1)NC(=O)C(C)(C)CCC[C@H](c1ccc(-c3cc(F)ccc3-c3cnn(C(F)(F)F)c3)c[n+]1[O-])c1nc-2c(C)[nH]1 [Example 5, (R,Z)-5-(5-fluoro-2-(1-(trifluoromethyl)-1H-pyrazol-4-yl)phenyl)-2-(2^4-((methoxycarbonyl)amino)-1^5,5,5-trimethyl-4-oxo-1^1H-3-aza-1(4,2)-imidazola-2(1,2)-benzenacyclononaphane-9-yl)pyridine 1-oxide] |
| 14.5 |  | 0.18 |  | COC(=O)Nc1ccc2c(c1)NC(=O)C(C)(C)CCC[C@H](c1ccc(-c3cc(Cl)cnc3OC(F)F)c[n+]1[O-])c1nc-2c(C)[nH]1 [Example 6, (R,Z)-5′-chloro-2′-(difluoromethoxy)-6-(2^4-((methoxycarbonyl)amino)-1^5,5,5-trimethyl-4-oxo-1^1H-3-aza-1(4,2)-imidazola-2(1,2)-benzenacyclononaphane-9-yl)-[3,3′-bipyridine]1-oxide] |

The remaining lines, values behind:

| SMILES | MRT [1] [h] | IC50 (human tissue kallikrein) [µM] | IC50 [2] [µM] | MRT [3] [h] |
| --- | --- | --- | --- | --- |
| COC(=O)Nc1ccc2c(c1)NC(=O)C(C)(C)CCC[C@H](c1ccc(-c3c(-n4cc(C(F)(F)F)cn4)ccc(F)c3F)c[n+]1[O-])c1nc-2c(C)[nH]1 [Example 1, (R,Z)-5-(2,3-difluoro-6-(4-(trifluoromethyl)-1H-pyrazol-1-yl)phenyl)-2-(2^4-((methoxycarbonyl)amino)-1^5,5,5-trimethyl-4-oxo-1^1H-3-aza-1(4,2)-imidazola-2 (1,2)-benzenacyclononaphane-9-yl)pyridine 1-oxide] | 10 | > 167 | > 10 |  |
| COC(=O)Nc1ccc2c(c1)NC(=O)C(C)(C)CCC[C@H](c1ccc(-c3cc(F)ccc3-n3cc(C(F)(F)F)cn3)c[n+]1[O-])c1nc-2c(C)[nH]1 [Example 2, (R.Z)-5-(5-fluoro-2-(4-(trifluoromethyl)-1H-pyrazol-1-yl)phenyl)-2-(2^4-((methoxycarbonyl)amino)-1^5,5,5-trimethyl-4-oxo-1^1H-3-aza-1(4,2)-imidazola-2(1,2)-benzenacyclononaphane-9-yl)pyridine 1-oxide] | 11 | 90 | > 10 |  |
| COC(=O)Nc1ccc2c(c1)NC(=O)C(C)(C)CCC[C@H](c1ccc(-c3cc(Cl)ccc3-n3cc(C(F)(F)F)cn3)c[n+]1[O-])c1nc-2c(C)[nH]1 [Example 3] |  | > 167 | > 10 | 10 |
